Reference: patent US20160024108A1, “USE OF DITHIINE-TETRACARBOXIMIDES FOR CONTROLLING BACTERIAL HARMFUL ORGANISMS IN USEFUL PLANTS” (BAYER CROPSCIENCE AKTIENGESELLSCHAFT, priority 2013, published 2016)

Tested on: Pseudomonas syringae pv tomato
Assay: Field trial against bacterial speck on tomato (Spain, 2011), artificial inoculation
Format: in vivo
Conditions: formulation containing 400 g per liter at 500 g ai/ha; in comparison with untreated plots and copper oxychloride standard
Protocol: A standard experiment was conducted in Spain in 2011 to evaluate the performance of BCS-BB98685 against bacterial speck of tomato caused by the bacteria Pseudomonas syringae pv tomato. Tomato plants were grown under plastic tunnel. Plots were artificially inoculated with a suspension of bacteria and treated with different experimental chemical formulations using a conventional sprayer. Four chemical sprays were applied within 7 days intervals. One artificial inoculation was performed one day after the third application. Disease assessment was done on 3 tomato plants per plot, 11 days after the last application. Infected leaflets were sorted in 3 classes according to a severity scale (Class 1=1 spot/leaflet; Class 2=2-5 spots/leaflet; Class 3=>5 spots/leaflet). Then results were expressed as severity index and transformed in efficacy values using the Abbott formula.

SMILES: Cn1c(=O)c2sc3c(=O)n(C)c(=O)c3sc2c1=O [Compound I-1, 2,6-dimethyl-1H,5H-[1,4]dithiino[2,3-c:5,6-c′]dipyrrole-1,3,5,7(2H,6H)-tetrone]
- level of bacterial infection on tomatoes: significantly reduce the level of bacterial infection on tomatoes
